We go through eight molecules from ChEMBL document CHEMBL1151591, “Structure-activity relationship of novel tallimustine derivatives: synthesis and antitumor activity” (Bioorg Med Chem Lett, 1996).

One test deals with L1210. Kind of test: In vitro inhibition of L1210 murine leukemia (Drug sensitivity was determined by counting surviving cells after 48 hr of continuous exposure to at least 4 conc. of drug). It is filed as functional, cell-based. The conditions noted are these: Mus musculus, L1210, 48 h.
Test [1] concerns Mus musculus. Kind of test: In vivo inhibition of L1210 murine leukemia, expressed as optimal dose (CDF21 mice were given an injection of 105 cells i.p. and treated on day 1). It counts as functional.
The test system of test [2] is Mus musculus. Put plainly: In vivo cytotoxicity against L1210 murine leukemia, expressed as median survival time of treated vs. untreated mice X 100 (CDF21 mice were given an injection of 105 cells i.p. and treated on day 1). It is filed as functional.

As for `Cl.Cn1cc(NC(=O)c2cc(NC(=O)c3cc(NC(=O)c4ccc(N(CCCl)CCCl)cc4)nn3C)cn2C)cc1C(=O)NCCC(=N)N`, inhibition in the test with L1210 was half-maximal at 1.39 µg/mL (IC50). This molecule also registered an Optimal dose with Mus musculus [1] of 12.5 mg/kg. The same molecule showed a T/C in the test with Mus musculus [2] of 118%.

In the test with L1210, `Cl.Cn1cc(NC(=O)c2cc(NC(=O)c3csc(NC(=O)c4ccc(N(CCCl)CCCl)cc4)n3)cn2C)cc1C(=O)NCCC(=N)N` gave an IC50 of 32.5 µg/mL.

In the test with L1210, `Cl.Cn1cc(NC(=O)c2ccc(N(CCCl)CCCl)cc2)cc1C(=O)Nc1cc(C(=O)Nc2cc(C(=O)NCCC(=N)N)n(C)n2)n(C)c1` registered an IC50 of 0.03 µg/mL. In the test on Mus musculus [1], the Optimal dose is 6.25 mg/kg. Moreover, the T/C in the test on Mus musculus [2] is 213%.

In the test on Mus musculus [1], `Cl.Cn1cc(NC(=O)c2cc(NC(=O)c3cc(NC(=O)c4ccc(N(CCCl)CCCl)cc4)cn3C)cn2C)cc1C(=O)NCCC(=N)N` [TALLIMUSTINE CHLORIDE] showed an Optimal dose of 3.13 mg/kg. In the test with Mus musculus [2], this molecule had a T/C of 175%.

In the test with L1210, `Cl.Cn1cc(NC(=O)c2csc(NC(=O)c3ccc(N(CCCl)CCCl)cc3)n2)cc1C(=O)Nc1cc(C(=O)NCCC(=N)N)n(C)n1` registered a half-maximal inhibitory concentration (IC50) of 7.2 µg/mL.

On to `C=C(Br)C(=O)Nc1nc(C(=O)Nc2cc(C(=O)Nc3cc(C(=O)NCCC(=N)N)n(C)c3)n(C)c2)cs1.Cl`, for which half-maximal inhibition with L1210 (IC50) was put at 23.8 µg/mL.

In turn, `Cl.Cn1cc(NC(=O)c2ccc(N(CCCl)CCCl)cc2)cc1C(=O)Nc1cc(C(=O)Nc2cc(C(=O)NCCC(=N)N)n(C)n2)n(C)n1` returned an IC50 with L1210 of 0.11 µg/mL. Besides, in the test on Mus musculus [1], the Optimal dose stood at 25 mg/kg. The same molecule came in with a T/C in the test on Mus musculus [2] of 259%.

For `C=C(Br)C(=O)Nc1cc(C(=O)Nc2cc(C(=O)Nc3cc(C(=O)NCCC(=N)N)n(C)c3)n(C)c2)n(C)n1.Cl`, the IC50 in the test with L1210 stood at 0.15 µg/mL. The molecule also came in with an Optimal dose with Mus musculus [1] of 30 mg/kg. This molecule had a T/C with Mus musculus [2] of 181%.
